`Cn1c(=O)cc(-c2cccc(Cl)c2)c2cc(C(O)(c3ccc(Cl)cc3)c3cnccc3N)ccc21` (stereo not shown) [Example B42, 6-[(4amino-3-pyridinyl)(4-chlorophenyl)hydroxymethyl]-4-(3-chlorophenyl)-1-methyl-2(1H)-quinolinone] returned a melting point of 262 °C. In the case of `CC(C)OC(=O)c1cccc(C(O)(c2ccc3c(c2)c(-c2cccc(Cl)c2)cc(=O)n3C)c2cncn2C)c1` (stereo not shown) [Example B45a, 1-methylethyl 3-[[4-(3-chlorophenyl)-1,2-dihydro-1-methyl-2-oxo-6-quinolinyl]hydroxy(1-methyl-1H-imidazol-5-yl)methyl]-benzoate] it was 150 °C; in that of `Cn1cncc1C(O)(c1cccc(CO)c1)c1ccc2c(c1)c(-c1cccc(Cl)c1)cc(=O)n2C` (stereo not shown) [Example B45b, 4-(3-chlorophenyl)-6-[hydroxy[3-(hydroxymethyl)phenyl](1-methyl-1H-imidazol-5-yl)methyl]-1-methyl-2(1H)-quinolinone], 150 °C; in that of `Cn1cnnc1C(O)(c1ccc(I)cc1)c1ccc2c(c1)C(c1cccc(Cl)c1)Nc1nnnn1-2` (stereo not drawn) [Example B46, 5-(3-chlorophenyl)-4,5-dihydro-α-(4-iodophenyl)-α-(4-methyl-4H-1,2,4-triazol-3-yl)-tetrazolo[1,5-a]quinazoline-7-methanol], 201 °C.

As usually defined, the melting point is the temperature, or range, at which the solid turns liquid.
